Values quoted from earlier work as cited in US9023888B2, “Composition of monoterpenoids having bactericidal properties” (priority 2011, dated 2015).

What was measured:
Staph. aureus = conditions: broth dilution
E. coli = conditions: for E. coli MBC (v/v %) / E. coli MBC ppm / E. coli MIC (v/v %) / E. coli MIC ppm: broth dilution

Row | SMILES | Staph. aureus MBC (v/v %) (Staph. aureus) | Staph. aureus MBC ppm (Staph. aureus) | Staph. aureus MIC (v/v %) (Staph. aureus) | Staph. aureus MIC ppm (Staph. aureus) | antibacterial activity (summary of Table 2 in words) (E. coli; E. coli and Staph. aureus data of Table 2) | E. coli MBC (v/v %) (E. coli) | E. coli MBC ppm (E. coli) | E. coli MIC (v/v %) (E. coli) | E. coli MIC ppm (E. coli)
1 | Cc1ccc(C(C)C)cc1 [p-cymene] | >8.0 | No level | >8.0 | No level | no effect at all | >8.0 | No level | >8.0 | No level
2 | CC1=CCC(C(C)(C)O)CC1 (centres unmarked) [∝-terpineol] | 0.25 | 2500 ppm | 0.25 | 2500 ppm |  | 0.06 | 600 ppm | 0.06 | 600 ppm
